Assay [1] deals with excised cotton leaves at different developmental stages. The assay can be described thus: Ethylene-induced chlorophyll degradation in leaves of mature cotton plants. It is filed as in vivo, cotton (Gossyium hirsutum barbadense L.). The method, then: (§1) (1) Abscission—This is a very sensitive model system for studying the effects of plant hormones. Ethylene induces the process of abscission, while auxin delays it. In the laboratory the experimental system is based on plant organ explants, which include the abscission zone. Abscission is induced by exposure to ethylene and at the termination of the experiment the number of abscised organs, usually either leaf blades or petioles are counted and the fraction of abscission is calculated. In the case of fruit, the decrease in fruit retention force is analyzed. In cotton, when WS-CPD (the ethylene-action antagonist herein disclosed) is tested, the whole plants or explants are pretreated by spraying with the antagonist, dissolved in a phosphate buffer solution (10-20 mM, pH 7.0) including 0.1% commercially available Kinetic™ as surfactant, and left to incubate for a predetermined time, usually between 6 and 24 h. The plants or explants are then further exposed for 24 h to ethylene gas (5 to 20 μL L^−1). The plants or explants are then ventilated and incubated for the required time under controlled conditions. At the end of the experiment the percentage of abscission is determined. (2) Chlorophyll degradation—This is a standard model for studying senescence. Plant material (whole plants, excised leaves or leaf discs) are pretreated. In cotton, tobacco and wheat, when WS-CPD is tested, the whole plants or explants are pretreated by spraying with the antagonist, dissolved in phosphate buffer solution (10-20 mM, pH 7.0) including 0.1% commercially available Kinetic™ surfactant, and left to incubate for a predetermined time, usually between 6 and 241. The plants or explants are then further exposed for 24 h to ethylene gas (1 to 100 μL L^−1), or sprayed with Ethephon™ (wheat; 250 to 750 μL L^−1). The plants or explants are then ventilated and incubated for the required time under controlled conditions. At the end of the experiment a dimethylsulfoxide (DMSO) extract of the plant tissue is prepared, and the chlorophyll content of the extract is determined by spectrophotometric analysis. The chlorophyll content is reported either on a fresh, dry weight basis, or on a surface area basis. (3) Epinasty—This is also one of the classical methods for studying ethylene effects in plants. The extent of ethylene-induced epinasty of leaves is determined by measuring the change of the angle between the petiole and the stem shoot or blade. After exposure of the intact plant to ethylene, the upright grown leaves bend downward. The increase in the angle values (degrees) between petiole and the stem is used as a measure of the effect of the ethylene. […]

The subject of the next assay is tobacco seedlings. As to the kind of experiment: Ethylene-induced chlorophyll degradation in tobacco seedling leaves. In kind it is in vivo, tobacco (Nicotiana tabacum var. 'Samsun'). The method, then: as §1

The structures appear in SMILES notation.

This is an account of results in patent US9363996B2, “Compositions and method for blocking ethylene response in field crops using 3-(cy-clopropyl-l-enyl)-propanoic salt” (Yissum Research Development Company of the Hebrew …, priority 2009, dated 2016).

Turning to `O=C([O-])CCC1=CC1.[Na+]` [WS-CPD, 3-cyclopropyl-1-enyl-propanoic sodium salt], the ethylene-induced chlorophyll degradation entry in assay [1] (mature leaves, WS-CPD 480 μg L^−1 (so in the source)) is “less effective”; in assay [1] (young leaves, WS-CPD 10 μg mL^−1, ethylene 10 μL L^−1), “completely antagonized”; in assay [1] (young leaves, WS-CPD 270 μg mL^−1), “less effective”; in the assay with tobacco seedlings (WS-CPD 14 μg mL^−1 pretreatment spray, young and mature leaves), “completely reversed”; in the assay with tobacco seedlings (higher concentrations of WS-CPD), “less effective”. The “inhibition of ethylene-induced chlorophyll degradation” value in assay [1] (mature leaves, WS-CPD 90 and 240 μg mL^−1) is 95%.
